# Values joined by “and” are separate entries in the source; they are usually repeats but may differ in a detail not shown here. Identical values can stand only once. “Also recorded” adds a separate entry of the source.
# Columns and labels:
# patients = conditions: human, in vivo, 3 mg/kg/day; cited from earlier work
# C57BL/6 mice [1] = experiment: LPS-mediated sepsis: cardiac function by 2D echocardiography (fractional shortening); type: in vivo
# Experimental: (§1) LPS (5 mg/kg) (Sigma) was administered intraperitoneally (i.p.) in mice. Control mice were treated with equal volume of saline. Cardiac function was assessed by 2D echocardiography 5-6 hours post-LPS administration and mice were sacrificed 2-3 hours later (7-9 hours post-LPS injection).
# (§2) Two-dimensional echocardiography was performed on conscious 10 to 12 week-old male and female (n=5-8 per group) mice (Sonos5500 system; Philips Medical Systems).^129Echocardiographic images were recorded in a digital format. Images were then analyzed off-line by a single observer blinded to the murine genotype.^130
# hearts of C57BL/6 mice [2] = experiment: Cardiac mRNA levels by quantitative real-time PCR after LPS; type: in vivo
# Experimental: as §1
# (§3) Total RNA was purified from cells or hearts using the TRIzol reagent according to the instructions of themanufacturer (Invitrogen). cDNA was synthesized using the SuperScript III First-Strand Synthesis SuperMix (Invitrogen). cDNA was analyzed with quantitative real-time PCR that was performed with SYBR Green PCRCore Reagents (Stratagene). Incorporation of the SYBRgreen dye into the PCR products was monitored in real time withan Mx3000 sequence detection system (Stratagene). Samples were normalized against β-actin.
# [3] = test system: cardiac muscle of C57BL/6 mice; experiment: FA oxidation ([3H]palmitate oxidation) in heart pieces; type: in vivo; conditions: LPS 5 mg/kg, 6-8 h
# Experimental: as §1
# hearts of C57BL/6 mice [4] = experiment: Cardiac ATP measurement; type: in vivo; conditions: LPS 5 mg/kg, 6-8 h
# Experimental: as §1
# hearts of C57BL/6 mice [5] = experiment: Western blot of pJNK, p-cJun and pAMPK in hearts; type: in vivo; conditions: LPS 5 mg/kg; controls (label LPS) or animals given rosiglitazone 35 mg/kg (label rosiglitazone)
# Experimental: as §1
# (§4) Isolated heart tissues or cells were homogenized in PBS containing protease inhibitors and phosphatase inhibitors (Roche, Indianapolis, Ind.). Membrane and cytosolic fractions were separated by ultracentrifugation.20 μg from each fraction was applied to SDS-PAGE and transferred onto nitrocellulose membranes. Antibodies were obtained from Santa Cruz (JNK) and Cell Signaling (phospho-JNK, phospho-AMPK^Thr 172 and total AMPK).
# C57BL/6 mice [6] = experiment: Assessment of survival after lethal dose of LPS; type: in vivo
# From the text: Control animals received saline and DMSO instead of LPS and rosiglitazone, respectively.
# αMHC-PPARγ mice = experiment: LPS in αMHC-PPARγ mice: 2D echocardiography (fractional shortening); type: in vivo; conditions: LPS-treated αMHC-PPARγ mice
# Experimental: (§5) All procedures involving animals were approved by the Institutional Animal Care and Use Committee at Columbia University. Mice were maintained under appropriate barrier conditions in a 12 hr light-dark cycle and received food and water ad libitum. The animals that were used for this study were C57BL/6 mice and mice expressing specifically in cardiomyocytes peroxisome proliferator activating receptor-γ (αMHC-PPARγ) that are also on the C57BL/6 background. All studies were performed on the different genotypes with littermates as controls. Hearts from these mice were harvested, flash frozen and stored at −80° C. until further use. All analyses involving animals were performed with at least 5 mice per experimental group.
# as §1, §2
# [7] = test system: hearts of αMHC-PPARγ mice; experiment: Cardiac mRNA levels in LPS-treated αMHC-PPARγ mice; type: in vivo
# Experimental: as §5, §1, §3
# [8] = test system: cardiac muscle of αMHC-PPARγ mice; experiment: [3H]palmitic acid oxidation in cardiac muscle of αMHC-PPARγ mice; type: in vivo; conditions: LPS-treated vs saline-treated αMHC-PPARγ mice
# Experimental: as §1
# FA oxidation was measured in pieces of hearts isolated from 10-12 week old mice. The heart pieces were incubated at 37° C. for 2 h in modified Krebs-Ringerbuffer (MKR: 115 mM NaCl, 2.6 mM KCl, 1.2 mM KH2PO4, 10 mM NaHCO3,10 mM HEPES, pH 7.4) that contained 2% BSA, […] palmitate and 10 μCi/ml 9,10(n)-[^3H]-palmitate and was gassed with 95% O2 and 5% CO2. Water was then extracted with chloroform:methanol (2:1) extraction. Palmitate oxidation was determined by measuring the amount of ^3H2O in the aqueous phase.
# [9] = test system: hearts of αMHC-PPARγ mice; experiment: Cardiac ATP levels in αMHC-PPARγ mice; type: in vivo; conditions: LPS-treated αMHC-PPARγ mice
# Experimental: as §1
# Cardiac pieces of 10 mg were used to determine ATP levels. Heart pieces were dissolved in ice-cold 0.1% trichloro-acetic acid and centrifuged. Supernatant was resuspended in 50 mM Tris-acetate containing 2 mM EDTA, pH 7.8 and a portion was used to measure ATP. The measurement was performed with the ATP determination kit (Invitrogen) according to the instructions of the manufacturer.
# [10] = test system: hearts of αMHC-PPARγ mice; experiment: Western blot of pAMPK and pJNK in hearts of αMHC-PPARγ mice; type: in vivo
# Experimental: as §1, §4
# AC16 cells = experiment: PPARα gene expression in LPS-treated human cardiomyocyte cell line; type: cell-based; conditions: LPS treatment alone
# From the text: A human ventricular cardiomyocyte-derived cell line, designated AC-16, was kindly provided by M. M. Davidson.^126 Cells were maintained in Dulbecco's Modified Eagle Medium: Nutrient Mixture F-12 (Ham) (DMEM:F12) (Invitrogen) supplemented with fetal bovine serum (10%) and a mixture of penicillin and streptomycin (1%). Prior to infection with recombinant adenoviruses the medium was changed to 2% heat inactivated horse serum and the cells were infected in at least duplicates with control adenovirus that expresses the Green Fluorescent Protein (Ad-GFP) or the adenovirus expressing the constitutively active form of JNK2 (Ad-JNK2α2) at a multiplicity of infection (MOI) of 10. […] To assess gene expression 48 hours post incubation, cell lysates were collected and analyzed for mRNA and protein expression.
# as §3, with “Samples were normalized against β-actin.” left out
# [11] = test system: cardiac tissue from C57BL/6 mice; experiment: Electron microscopy of cardiac mitochondria; type: in vivo; conditions: LPS vs saline
# From the text: Left ventricles from 3-month-old mice were fixed with 2.5% glutaraldehyde in 0.1 M Sorensen's buffer (0.2 M monobasic phosphate/0.2 M dibasic phosphate, 1:4 vol/vol; pH 7.2), postfixed in osmium tetroxide, and embedded in EPON 812 (Electron Microscopy Sciences). Ultrathin sections were stained with uranyl acetate and lead citrate and examined under a JEM-1200ExII electron microscope (JEOL).
# [12] = test system: cardiac RNA from LPS-treated mice; experiment: MiR array analysis of cardiac RNA; type: in vivo
# From the text: The next experiment assessed whether the cardiac miR (microRNA) profiles of LPS-treated mice resemble the respective profiles in heart failure. (FIG. 5(A)-(C)).
# C57BL6 mice = experiment: Plasma IL-6 protein levels after LPS; type: in vivo; conditions: LPS 5 mg/kg, 6-8 h
# Experimental: An animal model of cardiac septic shock was reproduced by treating 10 week old C57BL6 mice with LPS (5 mg/kg of body) for 6-8 h.
# hearts of C57BL/6 mice [13] = experiment: Cardiac mRNA levels by quantitative real-time PCR after LPS; type: in vivo; conditions: LPS 5 mg/kg, 6-8 h
# [14] = cited from earlier work; for hepatic damage: long term use
# [15] = LPS 15 mg/kg, + DMSO (15 mice, F) or + rosiglitazone 33 mg/kg/day (17 mice, M)
# [16] = Saline (no LPS) + rosiglitazone 33 mg/kg/day, 8 mice, M
compound,measurement,setting,value
Oblimersen,adverse effects in patients,patients,no severe adverse effects
lipopolysaccharide [LPS],reduction in fractional shortening,"C57BL/6 mice [1]; LPS 5 mg/kg alone vs saline, 2D-echocardiography",50%
same,"fractional shortening, effect of LPS","C57BL/6 mice [1]; LPS 5 mg/kg of body, 6-8 h, 10 week old mice",reduced fractional shortening
same,PDK4 mRNA increase,hearts of C57BL/6 mice [2]; LPS 5 mg/kg alone,16 fold
same,"cardiac AOX mRNA, increased by",hearts of C57BL/6 mice [2]; LPS 5 mg/kg alone,42%
same,"cardiac PPARα mRNA levels, reduced by",hearts of C57BL/6 mice [2]; LPS 5 mg/kg alone,78%
same,"cardiac perilipin 2 mRNA, increased by",hearts of C57BL/6 mice [2]; LPS 5 mg/kg alone,3.3
same,cardiac IL-1α mRNA increase,"hearts of C57BL/6 mice [2]; LPS 5 mg/kg alone, qRT-PCR",90 fold
same,cardiac IL-6 mRNA increase,"hearts of C57BL/6 mice [2]; LPS 5 mg/kg alone, qRT-PCR",1250 fold
same,cardiac TNFα mRNA increase,"hearts of C57BL/6 mice [2]; LPS 5 mg/kg alone, qRT-PCR",26 fold
same,"cardiac PPARγ (mRNA) levels, increased by","hearts of C57BL/6 mice [2]; LPS alone, normal C57BL/6 mice",~60% and 57%
same,gene expression levels of αMHC and βMHC,"hearts of C57BL/6 mice [2]; LPS, hearts of C57BL/6 mice",reduces both αMHC and βMHC
same,switch from α-MHC isoform to β-MHC (cardiac mRNA),hearts of C57BL/6 mice [2]; LPS-treated mice,did not indicate such change
same,cardiac PPARδ mRNA,"hearts of C57BL/6 mice [2]; any of the treatment groups (rosiglitazone 35 mg/kg, LPS 5 mg/kg, both)",not modulated
same,"FAO, reduced by",[3],61%
same,"cardiac ATP, reduced by",hearts of C57BL/6 mice [4],44%
same,phospho-AMPK in heart after LPS,hearts of C57BL/6 mice [5],not stimulated; also recorded: reduced phospho-AMPK
same,phosphorylation/activation of JNK (and c-Jun) in heart after LPS,hearts of C57BL/6 mice [5],induced phosphorylation of JNK; also recorded: activated
same,Survivors 24 h,C57BL/6 mice [6]; [15],14
same,Survivors 36 h,C57BL/6 mice [6]; [15],14
same,Survivors 48 h,C57BL/6 mice [6]; [15],10
same,Survivors 60 h,C57BL/6 mice [6]; [15],5
same,Survivors 72 h,C57BL/6 mice [6]; [15],2
same,start of dying post-injection,C57BL/6 mice [6]; LPS alone 15 mg/kg i.p.,36 h
same,fractional shortening / cardiac function,αMHC-PPARγ mice,remained normal; also recorded: preserved
same,UCP2 mRNA increase,[7]; LPS,23.7 fold
same,UCP3 mRNA increase,[7]; LPS,17.4 fold
same,PDK4 mRNA increase,[7]; LPS 5 mg/kg,5.4 fold
same,"cardiac CD36 gene expression, reduced by",[7]; LPS 5 mg/kg,93%
same,cardiac IL-1α mRNA increase,[7]; LPS 5 mg/kg,23.1 fold and 23 fold
same,cardiac IL-6 mRNA increase,[7]; LPS 5 mg/kg,288 fold and 285 fold
same,"cardiac PGC-1β gene expression, reduced by",[7]; LPS 5 mg/kg,76%
same,cardiac TNFα mRNA increase,[7]; LPS 5 mg/kg,12.5 fold
same,estrogen-related receptor (ERR)α mRNA,[7]; LPS 5 mg/kg,not modulated
same,perilipin 2 mRNA,[7]; LPS 5 mg/kg,not modulated
same,"perilipin 5 mRNA, reduced by",[7]; LPS 5 mg/kg,50%
same,AOX mRNA increase,[7]; LPS 5 mg/kg vs saline,27.1 fold
same,Cpt1β mRNA increase,[7]; LPS 5 mg/kg vs saline,14.3 fold
same,PGC-1α mRNA increase,[7]; LPS 5 mg/kg vs saline,30.1 fold
same,PPARγ mRNA increase,[7]; LPS 5 mg/kg vs saline,31.6 fold
same,PPARδ mRNA increase,[7]; LPS 5 mg/kg vs saline,31.6 fold
same,cardiac PPARα mRNA reduction,[7]; LPS 5 mg/kg vs saline,77% and 78%
same,"levels of FAO, increase",[8],2.6 fold
same,cardiac ATP content,[9],significantly increased
same,"cardiac ATP levels, increase",[9],2.2 fold
same,JNK activation,"[10]; LPS 5 mg/kg, αMHC-PPARγ mice",activated JNK
same,phosphorylated AMPK levels,[10]; LPS-treated αMHC-PPARγ mice,reduced
same,PPARα expression in human cardiomyocyte cell line,AC16 cells,reduces PPARα expression
same,morphology and intracellular arrangement of mitochondria,[11],did not affect
same,"miRs associated with heart failure (miR-1, -133, -208, -195, -24, -125b, -199a, 214) affected",[12],none
same,plasma IL-6 protein levels,C57BL6 mice,increased
same,"cardiac gene expression of inflammation-associated genes (IL-1α, IL-6 and TNFα)",hearts of C57BL/6 mice [13],increased
same,"mRNA levels for cardiac PPARα, CD36, LpL, FATP, Cpt1β, PGC-1α and PGC-1β",hearts of C57BL/6 mice [13],reduced
"CCc1ccc(CCOc2ccc(CC3SC(=O)NC3=O)cc2)nc1 (stereo not shown) [Pioglitazone, pioglitazone]",deleterious effects on blood lipids,[14]; in vivo,fewer deleterious effects on blood lipids
Cc1cccc(Nc2cc(Cl)nc(SCC(=O)O)n2)c1C [WY-14643],improved fractional shortening by,"C57BL/6 mice [1]; LPS 5 mg/kg + WY-14643 30 mg/kg, trend, p=0.09",25%
Cc1c(C)c2c(c(C)c1O)CCC(C)(COc1ccc(CC3SC(=O)NC3=O)cc1)O2 (stereo not shown) [troglitazone],hepatic damage,[14],cause hepatic damage with long term use
CN(CCOc1ccc(CC2SC(=O)NC2=O)cc1)c1ccccn1 (stereo not shown) [rosiglitazone],Survivors 24 h,C57BL/6 mice [6]; [15],17
same,Survivors 36 h,C57BL/6 mice [6]; [15],16
same,Survivors 48 h,C57BL/6 mice [6]; [15],16
same,Survivors 60 h,C57BL/6 mice [6]; [15],15
same,Survivors 72 h,C57BL/6 mice [6]; [15],13
same,Survivors 24 h,C57BL/6 mice [6]; [16],8
same,Survivors 36 h,C57BL/6 mice [6]; [16],8
same,Survivors 48 h,C57BL/6 mice [6]; [16],8
same,Survivors 60 h,C57BL/6 mice [6]; [16],8
same,Survivors 72 h,C57BL/6 mice [6]; [16],8
same,hepatic damage,[14],cause hepatic damage with long term use

# — patent US20140045758A1, “Methods for Treating and Preventing Cardiac Dysfunction in Septic Shock” (THE TRUSTEES OF COLUMBIA UNIVERSITY IN THE CITY OF NEW YORK, priority 2011, published 2014)
